# According to US12692249B2, “WDR5 inhibitors and modulators” (Vanderbilt University, priority 2019, dated 2026):
# Test system: MV4:11 human cancer cell lines
# Assay: Cellular viability / anti-proliferative assay, CellTiter-Glo, 5 day protocol
# Assay type: cell-based
# Conditions: Homo sapiens, MV4-11, 120 h, MV4:11 cells; 5 day incubation; CellTiter-Glo; mean of at least two replicates; read-out: GI50 on cellular proliferation of MV4:11 human cancer cell lines
# Description: Cellular Viability of Human Tumor Cell Lines
# Anti-proliferative activity using MLL-harboring cell lines. MV-4-11 and K562 cells are grown in IMDM media supplemented with 10% FBS and 1% penicillin/streptomycin, Molm-13 cells are cultured in RPMI-1640 media supplemented with 10% FBS and 1% penicillin/streptomycin. Viability assays are performed by dispensing 200 cells at 7200 cells/mL into each well of an opaque 384-well plate and adding compounds at the indicated concentrations in a final volume, of 32 μL. and a final concentration of DMSO of 0.3% for all samples. A certain range of compound concentrations is made through a series of 2-fold dilutions starting 30 μM at the highest, total 22 dilutions. After a set incubation period, 5 day protocol, the viability of cells in each well is assessed using the CellTiter-Glo assay (Promega), read on a 96 Microplane Luminometer (Cytation 3, BioTek). Serial dilutions of each cell type are performed in all assays to generate standard curves and the final densities of cells are determined within the dynamic range of the instrument. GI50 values are calculated based on XLfit software (IDBS, Guildford, UK) with Sigmoidal Dose-Response Model. Each compound is tested in minimum of two replicates. Data are expressed as mean.
row,Compound,GI50
1,"COc1cc(N2CCC(NC(C)=O)CC2)c2nc(C)cc(N3CCc4c(cc(Cn5ccnc5)cc4-c4cn(C)nc4C(F)(F)F)C3=O)c2c1 [Example 192, N-(1-(4-(7-((1H-Imidazol-1-yl)methyl)-5-(1-methyl-3-(trifluoromethyl)-1H-pyrazol-4-yl)-1-oxo-3,4-dihydroisoquinolin-2(1H)-yl)-6-methoxy-2-methylquinolin-8-yl)piperidin-4-yl)acetamide]",< 20 nM
2,"CCc1cc(Br)c2nccc(N3CCc4c(cc(Cn5ccnc5)cc4-c4cn(C)nc4C(F)(F)F)C3=O)c2c1 [Example 34, 7-((1H-imidazol-1-yl)methyl)-2-(8-bromo-6-ethylquinolin-4-yl)-5-(1-methyl-3-(trifluoromethyl)-1H-pyrazol-4-yl)-3,4-dihydroisoquinolin-1(2H)-one]",< 20 nM
3,"COc1cc(C(=O)N2CCOCC2)c2nccc(N3CCc4c(cc(Cn5ccnc5)cc4-c4cn(C)nc4C(F)(F)F)C3=O)c2c1 [Example 46, 7-((1H-Imidazol-1-yl)methyl)-2-(6-methoxy-8-(morpholine-4-carbonyl)quinolin-4-yl)-5-(1-methyl-3-(trifluoromethyl)-1H-pyrazol-4-yl)-3,4-dihydroisoquinolin-1(2H)-one]",444 nM
4,"COc1cc(N2CCN(C)C(=O)C2)c2nccc(N3CCc4c(cc(Cn5ccnc5)cc4-c4cn(C)nc4C(F)(F)F)C3=O)c2c1 [Example 33, 7-((1H-Imidazol-1-yl)methyl)-2-(6-methoxy-8-(4-methyl-3-oxopiperazin-1-yl)quinolin-4-yl)-5-(1-methyl-3-(trifluoromethyl)-1H-pyrazol-4-yl)-3,4-dihydroisoquinolin-1(2H)-one]",< 20 nM
5,"CCc1cc(N2CCN(C(C)C)CC2)c2nc(C)cc(N3CCc4c(cc(Cn5ccnc5)cc4-c4cn(C)nc4C(F)(F)F)C3=O)c2c1 [Example 137, 7-((1H-Imidazol-1-yl)methyl)-2-(6-ethyl-8-(4-isopropylpiperazin-1-yl)-2-methylquinolin-4-yl)-5-(1-methyl-3-(trifluoromethyl)-1H-pyrazol-4-yl)-3,4-dihydroisoquinolin-1(2H)-one]",< 20 nM
6,"CCc1cc(-c2cccn2C)c2nccc(N3CCc4c(cc(Cn5ccnc5)cc4-c4cn(C)nc4C(F)(F)F)C3=O)c2c1 [Example 97, 7-((1H-Imidazol-1-yl)methyl)-2-(6-ethyl-8-(1-methyl-1H-pyrrol-2-yl)quinolin-4-yl)-5-(1-methyl-3-(trifluoromethyl)-1H-pyrazol-4-yl)-3,4-dihydroisoquinolin-1(2H)-one]",83 nM
7,"COc1cc(-c2nnn[nH]2)c2nc(C)cc(N3CCc4c(cc(Cn5ccnc5)cc4-c4cn(C)nc4C(F)(F)F)C3=O)c2c1 [Example 196, 7-((1H-Imidazol-1-yl)methyl)-2-(6-methoxy-2-methyl-8-(1H-tetrazol-5-yl)quinolin-4-yl)-5-(1-methyl-3-(trifluoromethyl)-1H-pyrazol-4-yl)-3,4-dihydroisoquinolin-1(2H)-one]",> 10000 nM
8,"CCOC(=O)c1cc(CC)cc2c(N3CCc4c(cc(Cn5ccnc5)cc4-c4cn(C)nc4C(F)(F)F)C3=O)ccnc12 [Example 91, Ethyl 4-(7-((1H-imidazol-1-yl)methyl)-5-(1-methyl-3-(trifluoromethyl)-1H-pyrazol-4-yl)-1-oxo-3,4-dihydroisoquinolin-2(1H)-yl)-6-ethylquinoline-8-carboxylate]",< 20 nM
9,"Cc1cc(N2CCN(C)CC2)c2cncc(N3CCc4c(cc(Cn5ccnc5)cc4-c4cn(C)nc4C(F)(F)F)C3=O)c2c1 [Example 100, 7-((1H-Imidazol-1-yl)methyl)-6′-methyl-5-(1-methyl-3-(trifluoromethyl)-1H-pyrazol-4-yl)-8′-(4-methylpiperazin-1-yl)-3,4-dihydro-1H-[2,4′-biisoquinolin]-1-one]",< 20 nM
10,"CCOC(=O)c1cc(CC)cc2c(N3CCc4c(cc(Cn5ccnc5)cc4-c4cn(C)nc4C(F)(F)F)C3=O)cc(C)nc12 [Example 162, ethyl 4-(7-((1H-imidazol-1-yl)methyl)-5-(1-methyl-3-(trifluoromethyl)-1H-pyrazol-4-yl)-1-oxo-3,4-dihydroisoquinolin-2(1H)-yl)-6-ethyl-2-methylquinoline-8-carboxylate]",88 nM
11,COc1cc(C(=O)NC2CN(C(=O)c3cscn3)C2)c2nccc(N3CCc4c(cc(Cn5ccnc5)cc4-c4cn(C)nc4C(F)(F)F)C3=O)c2c1 [Example 227],< 20 nM
12,"COc1cc(C(=O)N2CCN(C)CC2)c2nccc(N3CCc4c(cc(Cn5ccnc5)cc4-c4cn(C)nc4C(F)(F)F)C3=O)c2c1 [Example 43, 7-((1H-Imidazol-1-yl)methyl)-2-(6-methoxy-8-(4-methylpiperazine-1-carbonyl)quinolin-4-yl)-5-(1-methyl-3-(trifluoromethyl)-1H-pyrazol-4-yl)-3,4-dihydroisoquinolin-1(2H)-one]",563 nM
13,"CCc1cc(C(=O)NCc2ccncc2)c2nccc(N3CCc4c(cc(Cn5ccnc5)cc4-c4cn(C)nc4C(F)(F)F)C3=O)c2c1 [Example 163, 4-(7-((1H-Imidazol-1-yl)methyl)-5-(1-methyl-3-(trifluoromethyl)-1H-pyrazol-4-yl)-1-oxo-3,4-dihydroisoquinolin-2(1H)-yl)-6-ethyl-N-(pyridin-4-ylmethyl)quinoline-8-carboxamide]",56 nM
14,"COc1ccc2nc(C)cc(N3CCc4c(cc(Cn5ccnc5)cc4-c4cn(C)nc4C(F)(F)F)C3=O)c2c1 [Example 14, 7-((1H-Imidazol-1-yl)methyl)-2-(6-methoxy-2-methylquinolin-4-yl)-5-(1-methyl-3-(trifluoromethyl)-1H-pyrazol-4-yl)-3,4-dihydroisoquinolin-1(2H)-one]",44 nM
15,"CCc1cc(C(=O)NCCO)c2nccc(N3CCc4c(cc(Cn5ccnc5)cc4-c4cn(C)nc4C(F)(F)F)C3=O)c2c1 [Example 168, 4-(7-((1H-Imidazol-1-yl)methyl)-5-(1-methyl-3-(trifluoromethyl)-1H-pyrazol-4-yl)-1-oxo-3,4-dihydroisoquinolin-2(1H)-yl)-6-ethyl-N-(2-hydroxyethyl)quinoline-8-carboxamide]",46 nM
16,"COc1cc(N2CCN(C(C)=O)CC2)c2nccc(N3CCc4c(cc(Cn5ccnc5)cc4-c4cn(C)nc4C(F)(F)F)C3=O)c2c1 [Example 32, 7-((1H-imidazol-1-yl)methyl)-2-(8-(4-acetylpiperazin-1-yl)-6-methoxyquinolin-4-yl)-5-(1-methyl-3-(trifluoromethyl)-1H-pyrazol-4-yl)-3,4-dihydroisoquinolin-1(2H)-one]",< 20 nM
17,"CCc1cc(C(=O)O)c2nccc(N3CCc4c(cc(Cn5ccnc5)cc4-c4cn(C)nc4C(F)(F)F)C3=O)c2c1 [Example 92, 4-(7-((1H-imidazol-1-yl)methyl)-5-(1-methyl-3-(trifluoromethyl)-1H-pyrazol-4-yl)-1-oxo-3,4-dihydroisoquinolin-2(1H)-yl)-6-ethylquinoline-8-carboxylic acid]",388 nM

# Same assay, conditions: Homo sapiens, MV4-11, 120 h, read-out: GI50 on cellular proliferation of MV4:11 human cancer cell lines
row,Compound,GI50
1,"CCc1cc(C(=O)NCCN(C)C)c2nccc(N3CCc4c(cc(Cn5ccnc5)cc4-c4cn(C)nc4C(F)(F)F)C3=O)c2c1 [Example 166, 4-(7-((1H-Imidazol-1-yl)methyl)-5-(1-methyl-3-(trifluoromethyl)-1H-pyrazol-4-yl)-1-oxo-3,4-dihydroisoquinolin-2(1H)-yl)-N-(2-(dimethylamino)ethyl)-6-ethylquinoline-8-carboxamide]",< 20 nM
